Laboratory results published in PMC4448987, “A neuroligin-1-derived peptide stimulates phosphorylation of the NMDA receptor NR1 subunit and rescues MK-801-induced decrease in long-term potentiation and memory impairment” (Pharmacology Research & Perspectives, 2015).
Where a name gives a salt, the structure may show the parent alone.

B1: NL1: rat recombinant NL1 ectodomain obtained from R&D Systems (protein, UniProt Q62765 46-697, looked up)
extracellular domain: QKLDDVDPLVTTNFGKIRGIKKELNNEILGPVIQFLGVPYAAPPTGEHRFQPPEPPSPWSDIRNATQFAPVCPQNIIDGRLPEVMLPVWFTNNLDVVSSYVQDQSEDCLYLNIYVPTEDVKRISKECARKPGKKICRKGDIRDSGGPKPVMVYIHGGSYMEGTGNLYDGSVLASYGNVIVITVNYRLGVLGFLSTGDQAAKGNYGLLDLIQALRWTSENIGFFGGDPLRITVFGSGAGGSCVNLLTLSHYSEGNRWSNSTKGLFQRAIAQSGTALSSWAVSFQPAKYARILATKVGCNVSDTVELVECLQKKPYKELVDQDVQPARYHIAFGPVIDGDVIPDDPQILMEQGEFLNYDIMLGVNQGEGLKFVENIVDSDDGVSASDFDFAVSNFVDNLYGYPEGKDVLRETIKFMYTDWADRHNPETRRKTLLALFTDHQWVAPAVATADLHSNFGSPTYFYAFYHHCQTDQVPAWADAAHGDEVPYVLGIPMIGPTELFPCNFSKNDVMLSAVVMTYWTNFAKTGDPNQPVPQDTKFIHTKPNRFEEVAWTRYSQKDQLYLHIGLKPRVKEHYRANKVNLWLELVPHLHNLNDISQYTSTTTKVPSTDITLRPTRKNSTPVTSAFPTAKQDDPKQQPSPFSVDQRDYSTELS
modifications: extracellular domain
notes: rat recombinant NL1 ectodomain obtained from R&D Systems

Assays:
male Wistar rats [1] = assay: Y maze test (spontaneous alternation); format: in vivo, rat; conditions: n = 6-12
Procedure: NMDA-mediated effects of Neurolide-1 on spatial working memory performance was assessed by recording spontaneous alternation behavior in a Y maze test performed as described previously (Wegener et al. [2011]), (See Data S1). Initially, adult male Wister rats (420–490 g, n = 6–12; Charles River) were injected s.c., three times at 28, 4, and 2 h before start of the Y maze test. One group received Neurolide-1, saline, and neurolide-1 in this order. Another group received saline, MK-801, and saline in this order. A third group received neurolide-1, MK-801, and neurolide-1 in this order. And control group received saline at all times. In a second setup we tested the effect of neurolide-1 in very young male Wistar rats (4-weeks old) which received a s.c., injection of neurolide-1 or saline 2 h prior to testing them in the Y-maze (n = 11–15). Terminally, rats were rapidly and humanely rendered unconscious by concussive stunning and euthanized by cervical dislocation.
The maze was made of gray polyvinyl chloride, with three identical arms (425 mm length × 225 mm height × 145 mm width) mounted symmetrically to an equilateral triangular center section. Each rat was placed at the end of one arm and allowed to explore the apparatus freely for 8 min. The sequence and number of all arm entries were recorded for each animal throughout the testing period. An alternation was defined as entries into all three arms on consecutive occasions. Therefore, the number of maximal alternation was the total number of arm entries minus 2, and the percentage of alternation was calculated as (actual alternations / maximal alternations) × 100. The total number of arms entered during the sessions was also determined (Yamaguchi et al, 2006). Data were eliminated in cases in which the number of total arm entries was less than 10 or when the rat escaped from the Y maze. After each trial, the Y maze was cleaned with 1% Virkon S (Pharmaxim, Helsingborg, Sweden).

[2] = test system: hippocampal slices, CA3-CA1 synapse (fEPSP slope); assay: LTP in acute hippocampal slices from mice injected s.c.; format: in vivo, C57BL/6N mice; conditions: mice injected with MK-801 0.1 mg/kg s.c. alone, 1 h before sacrifice; slope 25-30 min after HFS vs before; mean ± SEM, n = 6
Procedure: Juvenile C57BL/6N mice of both sexes (postnatal day 16–24; Taconic, Ejby, Denmark) were injected subcutaneously (s.c.) with 10 mg/kg of the neurolide-1 peptide solution (10 mg/mL) and again 23 h later with 10 mg/kg of the neurolide-1 peptide solution (10 mg/mL) and 0.1 mg/kg MK-801 solution (0.025 mg/mL). Mice receiving the injection with the MK-801 solution only or untreated mice served as control groups. The young mice were rapidly and humanely euthanized with a minimum of distress by decapitation at a time point corresponding to 24 h after first injection. Preceding anesthetic was omitted to preserve the tissue free of drug residues and brain slice functions as unaltered as possible when performing the physiological measurements. After decapitation, the brain was removed. […]
Measurements were made in oxygenated aCSF at room temperature (1.1 mL/min). […] The field potential in the stratum radiatum of the CA1 area of the hippocampus was recorded with an extracellular glass microelectrode (4–6 MΩ, filled with aCSF), positioned at least 500 μm away from the stimulation electrode. […]

[3] = MK-801 0.1 mg/kg, cited from earlier work
male Wistar rats [4] = assay: Spatial memory in the Morris water maze; format: in vivo; conditions: rat, n = 12
Procedure: The Morris water-maze test (Morris [1984]) was performed as previously described (Kraev et al. [2011]) with slight modifications (see Data S1). Male Wistar rats (Charles River), weighing 150–200 g on the day of arrival were used. To investigate for potential effects on memory consolidation, neurolide-1 was injected immediately after the training sessions on day 1 and 2 (n = 12 in each group). To test for potential effects on memory acquisition neurolide-1 was injected 2 h before start of training on training day 1 and 2 (n = 12 in each group). Finally, to test for potential effects on MK-801-induced learning deficiencies neurolide-1 was injected 2 h before start of training on day 2 and 3 in animals, which had received an injection with MK-801 30 min earlier (n = 6–9 in each group). In a slightly modified version of the MK-801 experiments a group of animals received a neurolide-1 injection immediately after the training sessions on day 1, and then a neurolide-1 injection 2 h before start of training on day 2, preceded by an MK-801 injection 30 min earlier (n = 12 in each group). Terminally, rats were rapidly and humanely rendered unconscious by concussive stunning and euthanized by cervical dislocation.
The Morris water maze test (Morris, 1984) was conducted in a 160 cm wide circular black tank placed in a dimly lit room and filled with 21°C water up to 20 cm from the top. The tank was surrounded by visual orientation marks, and a 10 cm wide escape platform was placed 1.5 cm below the water level for it to be unseen. A video camera was placed above the tank and connected to a computerized tracking system (Ethovision 3.1, Noldus IT, Wageningen, Holland). The tank was divided into four equal-size quadrants that also served as starting positions. The latency to locate the platform, time spent swimming, and swimming speed were scored within the defined zones (i.e., total area, quadrants, and a platform circle that was 60 cm in diameter with the center in the original platform location). Prior to training, the rats were handled 2 min daily for 5 days to minimize stress during the experiments.
Reference memory training consisted of three consecutive trials daily for 3 days. Each trial began with placing the animal in the water facing the wall of the pool. The starting position differed for each trial but was identical for all animals. In each trial, the animal was allowed 90 s to locate the platform. […] After each trial, the rats were allowed 20 s of orientation time on the platform and then removed from the pool for 20 s before the next trial was initiated. After the last trial each day, the animals were dried and returned to their home cages.
To test for effects on long-term memory, the animals were tested in a probe trial 24 h after the last reference memory training. In the probe trial, the platform was removed, and the animals began from a position in a quadrant adjacent to the original platform quadrant. The rats were allowed to swim for 60 s, after which the trial was stopped.

[5] = test system: NMDA receptor NR1 subunit (serine 897); assay: NMDA receptor phosphorylation assay (immunoblot, anti-phospho-Ser897-NR1) in cultured cortical neurons; format: cell-based, Wistar rat; conditions: cultured rat cortical neurons, 5 min stimulation, NL1 ectodomain up to 5.4 nmol/L, four independent experiments
Procedure: Cortical neurons were obtained from Wistar rat embryos at embryonic day 19, of both sexes, basically as previously described (Maar et al. [1997]) (see Data S1). Briefly, animals were rendered unconscious by concussive stunning and euthanized by cervical dislocation. Hereafter, the embryonic brains were collected and cortical neurons were dissociated and seeded in 60-mm tissue culture dishes coated with 1 μg/mL of poly-D-lysine (Sigma-Aldrich, St. Louis, MO) and grown for 8 days before treatment. Then, the cultures were stimulated with either the NL1 ectodomain (0.2, 0.6, 1.8, and 5.4 nmol/L) or neurolide-1 (0.1, 0.3, 1, and 2.7 μmol/L) for 5 min. The cells were lysed, and proteins were resolved by sodium dodecyl sulfate-polyacrylamide gel electrophoresis followed by immunoblotting using rabbit anti-Ser897-NR1 antibody (1:500; Millipore, Billerica, MA), mouse anti-β-tubulin antibody (1:50,000; Sigma-Aldrich), and IRDye secondary antibodies (Odyssey, Lincoln, NE). The bands were visualized using the Odyssey CLX Infrared Imaging System (Odyssey). Four independent experiments with stimulation by NL1 ectodomain and eight independent experiments with stimulation by neurolide-1 were performed.

| Molecule | alternation rate (male Wistar rats [1]; adult rats 420-490 g, MK-801 0.1 mg/kg s.c. 4 h before test) [%] | total number of arm entries, single treatment (male Wistar rats [1]; adult rats, peptide alone or MK-801 alone) | increase of fEPSP slope after high-frequency stimulation (LTP) [2] [%] | time after injection at which the increase in stereotypy peaked ([3]; returned to baseline 2 h later, ref Homayoun et al. [2004], Su et al. [2007]) [min] | motility ([3]; ref Verma and Moghaddam [1996], Homayoun et al. [2004]) | learning (escape latency) in the water maze (male Wistar rats [4]; MK-801 0.1 mg/kg s.c. on day 2, 2.5 h before first training session) | velocity in the water maze (male Wistar rats [4]; MK-801 0.1 mg/kg s.c. with or without neurolide-1 10 mg/kg s.c. (long-term regimen)) | effect on NR1 phosphorylation at higher concentrations [5] |
| --- | --- | --- | --- | --- | --- | --- | --- | --- |
| C[C@]12N[C@H](Cc3ccccc31)c1ccccc12 [MK-801, (5S,10R)-(+)-5-methyl-10,11-dihydro-5H-dibenzo[a,d]cyclohepten-5,10-imine maleate] | ~50 | did not change | 27 ± 5 | 40 | induce hypermotility | strongly inhibited learning | Neither treatments affected velocity | – |
| B1 | – | – | – | – | – | – | – | did not have a statistically significant effect |
